These results are taken from patent publication US11554171B2, “Compounds and methods for the targeted degradation of bromodomain-containing proteins” (Arvinas Operations, Inc., priority 2015, dated 2023).

The assay relates to c-myc in 22RV-1 cells. Nature of the assay: Human c-myc ELISA assay. The assay is classed as cell-based. Conditions: Homo sapiens; for Emax: 22Rv1, 18 h, read-out: Degradation of BRD4: Maximum inhibition (%) c-Myc ELISA in 22RV1 cells; for DC50: 22Rv1, read-out: Degradation of BRD4: DC50 (uM) c-Myc ELISA in 22RV1 cells. The method, then: 22RV-1 cells are seeded at 30,000 cells/well at a volume of 75 μL/well in RPMI+10% FBS media in 96-well plates and grown overnight at 37 C. Cells are dosed with compounds at 4× concentration diluted in 0.4% DMSO; compounds are serially diluted 1:3 for 8-point dose curve. 25 ul of compounds is added to cells for a final concentration starting at 300 nM-0.3 nM or 1 uM-1 nM in 0.1% DMSO and incubated for 18 hrs. Media is aspirated, cells washed 1× with PBS and aspirated. Cells are lysed in 50 ul RIPA buffer (50 mM Tris pH8, 150 mM NaCl, 1% Tx-100, 0.1% SDS, 0.5% sodium deoxycholate) supplemented with protease and phosphatase inhibitors. Plates are incubated on ice for 15 minutes then centrifuged at 4 C for 10 min at 4000 rpm. Add 50 ul of cleared lysate from 96-well assay plate into 96-well c-myc ELISA plate (Novex, Life Technologies Catalog #KH02041). Reconstitute c-myc standard with standard diluent buffer; standard curve range is 333 pg/ml-0 pg/ml, diluted 1:2 for 8-point dose curve. The rest of the assay was performed following the protocol from the c-myc ELISA kit. Data is analyzed and plotted using GraphPad Prism software. Compounds described in this application were assayed and c-myc suppression potency is listed in the following Table (A: DC50<10 nM; B: DC50 10-100 nM; C: DC50: 100-1000 nM; D: DC50>1000 nM)
In general terms: In an ELISA, binding on a coated surface is turned into a signal by an enzyme label.

For orientation: DC50 means the concentration at which degradation of the target reaches its halfway point. Consider `Cc1ncsc1-c1ccc(CNC(=O)[C@@H]2C[C@@H](O)CN2C(=O)[C@@H](NC(=O)COCCOCCNC(=O)C[C@@H]2N=C(c3ccc(Cl)cc3)c3c(sc(C)c3C)-n3c(C)nnc32)C(C)(C)C)cc1` [Example 41, (2S,4R)-1-[(2S)-2-{2-[2-(2-{2-[(9S)-7-(4-chlorophenyl)-4,5,13-trimethyl-3-thia-1,8,11,12-tetraazatricyclo[8.3.0.0^2,^6]trideca-2(6),4,7,10,12-pentaen-9-yl]acetamido}ethoxy)ethoxy]acetamido}-3,3-dimethylbutanoyl]-4-hydroxy-N-{[4-(4-methyl-1,3-thiazol-5-yl)phenyl]methyl}pyrrolidine-2-carboxamide], for which the Emax is 94% and the DC50 lay in the range of 0.1 to 1 µM.

As for `Cc1ncsc1-c1ccc(CNC(=O)[C@@H]2C[C@@H](O)CN2C(=O)[C@@H](NC(=O)COCCOCCOCCNC(=O)C[C@@H]2N=C(c3ccc(Cl)cc3)c3c(sc(C)c3C)-n3c(C)nnc32)C(C)(C)C)cc1` [Example 42, (2S,4R)-1-[(2S)-2-(2-{2-[2-(2-{2-[(9S)-7-(4-chlorophenyl)-4,5,13-trimethyl-3-thia-1,8,11,12-tetraazatricyclo[8.3.0.0^2,^6]trideca-2(6),4,7,10,12-pentaen-9-yl]acetamido}ethoxy)ethoxy]ethoxy}acetamido)-3,3-dimethylbutanoyl]-4-hydroxy-N-{[4-(4-methyl-1,3-thiazol-5-yl)phenyl]methyl}pyrrolidine-2-carboxamide], the Emax came out at 98.6% and the DC50 fell in the range of 0.01 to 0.1 µM.

With `Cc1ncsc1-c1ccc(CNC(=O)[C@@H]2C[C@@H](O)CN2C(=O)[C@@H](NC(=O)COCC#CC#CCOc2ccc([C@@H](C)NC(=O)C[C@@H]3N=C(c4ccc(Cl)cc4)c4c(sc(C)c4C)-n4c(C)nnc43)cc2)C(C)(C)C)cc1` [Example 43, (2S,4R)-1-[(2S)-2-{2-[(6-{4-[(1R)-1-{2-[(9S)-7-(4-chlorophenyl)-4,5,13-trimethyl-3-thia-1,8,11,12-tetraazatricyclo[8.3.0.0^2,^6]trideca-2(6),4,7,10,12-pentaen-9-yl]acetamido}ethyl]phenoxy}hexa-2,4-diyn-1-yl)oxy]acetamido}-3,3-dimethylbutanoyl]-4-hydroxy-N-{[4-(4-methyl-1,3-thiazol-5-yl)phenyl]methyl}pyrrolidine-2-carboxamide], the Emax was 100% and the DC50 was in the range of 0.01 to 0.1 µM.

Consider `Cc1ncsc1-c1ccc(CNC(=O)[C@@H]2C[C@@H](O)CN2C(=O)[C@@H](NC(=O)COCCCNC(=O)C[C@@H]2N=C(c3ccc(Cl)cc3)c3c(sc(C)c3C)-n3c(C)nnc32)C(C)(C)C)cc1` [Example 44], for which the Emax worked out at 98% and the DC50 fell in the range of 0.1 to 1 µM.

Take `Cc1ncsc1-c1ccc(CNC(=O)[C@@H]2C[C@@H](O)CN2C(=O)[C@@H](NC(=O)COCCCCNC(=O)C[C@@H]2N=C(c3ccc(Cl)cc3)c3c(sc(C)c3C)-n3c(C)nnc32)C(C)(C)C)cc1` [Example 45, (2S,4R)-1-[(2S)-2-[2-(4-{2-[(9S)-7-(4-chlorophenyl)-4,5,13-trimethyl-3-thia-1,8,11,12-tetraazatricyclo[8.3.0.0^2,^6]trideca-2(6),4,7,10,12-pentaen-9-yl]acetamido}butoxy)acetamido]-3,3-dimethylbutanoyl]-4-hydroxy-N-{[4-(4-methyl-1,3-thiazol-5-yl)phenyl]methyl}pyrrolidine-2-carboxamide]: the Emax is 100% and the DC50 lay within 0.1 to 1 µM.

`Cc1ncsc1-c1ccc(CNC(=O)[C@@H]2C[C@@H](O)CN2C(=O)[C@@H](NC(=O)COCCCOCCCNC(=O)C[C@@H]2N=C(c3ccc(Cl)cc3)c3c(sc(C)c3C)-n3c(C)nnc32)C(C)(C)C)cc1` [Example 46]: the Emax turned out to be 100% and the DC50 lay in the range of 0.01 to 0.1 µM.

Consider `CCc1nnc2n1-c1sc(C)c(C)c1C(c1ccc(Cl)cc1)=N[C@H]2CC(=O)Nc1ccc(OCCCOCCCOCC(=O)N[C@H](C(=O)N2C[C@H](O)C[C@H]2C(=O)NCc2ccc(-c3scnc3C)cc2)C(C)(C)C)cc1` [Example 47], for which the Emax was found to be 89% and the DC50 was in the range of 0.1 to 1 µM.

With `Cc1ncsc1-c1ccc([C@H](C)NC(=O)[C@@H]2C[C@@H](O)CN2C(=O)[C@@H](NC(=O)COCCC(=O)N2CCN(c3ccc([C@H](C)NC(=O)C[C@@H]4N=C(c5ccc(Cl)cc5)c5c(sc(C)c5C)-n5c(C)nnc54)cc3)CC2)C(C)(C)C)cc1` [Example 48, (2S,4R)-1-[(2S)-2-{2-[3-(4-{4-[(1S)-1-{2-[(9S)-7-(4-chlorophenyl)-4,5,13-trimethyl-3-thia-1,8,11,12-tetraazatricyclo[8.3.0.0^2,^6]trideca-2(6),4,7,10,12-pentaen-9-yl]acetamido}ethyl]phenyl}piperazin-1-yl)-3-oxopropoxy]acetamido}-3,3-dimethylbutanoyl]-4-hydroxy-N-[(1S)-1-[4-(4-methyl-1,3-thiazol-5-yl)phenyl]ethyl]pyrrolidine-2-carboxamide], the Emax turned out to be 98% and the DC50 lay in the range of 0.01 to 0.1 µM.

As to `Cc1ncsc1-c1ccc(CNC(=O)[C@@H]2C[C@@H](O)CN2C(=O)[C@@H](NC(=O)COCCCOCCNC(=O)C[C@@H]2N=C(c3ccc(Cl)cc3)c3c(sc(C)c3C)-n3c(C)nnc32)C(C)(C)C)cc1` [Example 49, (2S,4R)-1-[(2S)-2-{2-[3-(2-{2-[(9S)-7-(4-chlorophenyl)-4,5,13-trimethyl-3-thia-1,8,11,12-tetraazatricyclo[8.3.0.0^2,^6]trdeca-2(6),4,7,10,12-pentaen-9-yl]acetamido}ethoxy)propoxy]acetamido}-3,3-dimethylbutanoyl]-4-hydroxy-N-{[4-(4-methyl-1,3-thiazol-5-yl)phenyl]methyl}pyrrolidine-2-carboxamide], the Emax worked out at 99% and the DC50 was below 0.01 µM.

Consider `Cc1ncsc1-c1ccc(CNC(=O)[C@@H]2C[C@@H](O)CN2C(=O)[C@@H](NC(=O)COCCCOCCCCCNC(=O)C[C@@H]2N=C(c3ccc(Cl)cc3)c3c(sc(C)c3C)-n3c(C)nnc32)C(C)(C)C)cc1` [Example 50, (2S,4R)-1-[(2S)-2-(2-{3-[(5-{2-[(9S)-7-(4-chlorophenyl)-4,5,13-trimethyl-3-thia-1,8,11,12-tetraazatricyclo[8.3.0.0^2,^6]trideca-2(6),4,7, 10,12-pentaen-9-yl]acetamido}pentyl)oxy]propoxy}acetamido)-3,3-dimethylbutanoyl]-4-hydroxy-N-{[4-(4-methyl-1,3-thiazol-5-yl)phenyl]methyl}pyrrolidine-2-carboxamide], for which the Emax came out at 98% and the DC50 was below 0.01 µM.

For `Cc1ncsc1-c1ccc(CNC(=O)[C@@H]2C[C@@H](O)CN2C(=O)[C@@H](NC(=O)COCCOCCOCCCCNC(=O)C[C@@H]2N=C(c3ccc(Cl)cc3)c3c(sc(C)c3C)-n3c(C)nnc32)C(C)(C)C)cc1` [Example 51, (2S,4R)-1-[(2S)-2-(2-{2-[2-(4-{2-[(9S)-7-(4-chlorophenyl)-4,5,13-trimethyl-3-thia-1,8,11,12-tetraazatricyclo[8.3.0.0^2,^6]trideca-2(6),4,7,10,12-pentaen-9-yl]acetamido}butoxy)ethoxy]ethoxy}acetamido)-3,3-dimethylbutanoyl]-4-hydroxy-N-{[4-(4-methyl-1,3-thiazol-5-yl)phenyl]methyl}pyrrolidine-2-carboxamide], the Emax turned out to be 97% and the DC50 is below 0.01 µM.

As to `Cc1ncsc1-c1ccc(CNC(=O)[C@@H]2C[C@@H](O)CN2C(=O)[C@@H](NC(=O)COCCN2CCC(c3ccc([C@H](C)NC(=O)C[C@@H]4N=C(c5ccc(Cl)cc5)c5c(sc(C)c5C)-n5c(C)nnc54)cc3)CC2)C(C)(C)C)cc1` [Example 52], the Emax is 93% and the DC50 is 0.1 to 1 µM.

As for `Cc1ncsc1-c1ccc(CNC(=O)[C@@H]2C[C@@H](O)CN2C(=O)[C@@H](NC(=O)COCCCOCCCOc2ccc(NC(=O)C[C@@H]3N=C(c4ccc(Cl)cc4)c4c(sc(C)c4C)-n4cnnc43)cc2)C(C)(C)C)cc1` [Example 53], the Emax turned out to be 56% and the half-maximal degradation concentration (DC50) is above 1 µM.

`Cc1ncsc1-c1ccc(CNC(=O)[C@@H]2C[C@@H](O)CN2C(=O)[C@@H](NC(=O)COCCCOCCCOc2ccc(NC(=O)C[C@@H]3N=C(c4ccc(Cl)cc4)c4c(sc(C)c4C)-n4c(C(C)C)nnc43)cc2)C(C)(C)C)cc1` [Example 54]: the Emax worked out at 63% and the DC50 is above 1 µM.

With `Cc1ncsc1-c1ccc(CNC(=O)[C@@H]2C[C@@H](O)CN2C(=O)[C@@H](NC(=O)COCCCOCCCOc2ccc(NC(=O)C[C@@H]3N=C(c4ccccc4)c4c(sc(C)c4C)-n4c(C)nnc43)cc2)C(C)(C)C)cc1` [Example 55, (2S,4R)-1-[(2S)-3,3-dimethyl-2-(2-{3-[3-(4-{2-[(9S)-4,5,13-trimethyl-7-phenyl-3-thia-1,8,11,12-tetraazatricyclo[8.3.0.0^2,^6]trideca-2(6),4,7,10,12-pentaen-9-yl]acetamido}phenoxy)propoxy]propoxy}acetamido)butanoyl]-4-hydroxy-N-{[4-(4-methyl-1,3-thiazol-5-yl)phenyl]methyl}pyrrolidine-2-carboxamide], the Emax came out at 100% and the DC50 is below 0.01 µM.
